Data on six molecules can be found in patent US4022606A, “Antimicrobial use of ω-aminocarboxylic acid amides” (Henkel & Cie G.m.b.H., priority 1973, dated 1977).

SMILES strings stand for the structures. ≈ marks a conversion by molar mass, not a printed value.

Assay type in all cases: cell-based
Test [1] has as its system Staphylococcus aureus. Kind of test: Minimum inhibitory concentration, dilution test, germ 1. Conditions: 72 h, 5 × 10^7 organisms/ml, 3 days at 37° C. Here is the method: (§1) In order to measure the antimicrobial efficacy of the above-named ω-aminocarboxylic acid amides, their inhibitory effect upon the subsequently listed bacteria and fungi, as well as upon the germs in contaminated process water was determined.
(§2) 1) Staphylococcus aureus
(§3) The minimum inhibitory concentrations of the products to be tested were determined by means of the dilution test according to the standards for the examination of chemical disinfectants which had been published in 1959 by the Deutsche Gesellschaft fur Hygiene und Mikrobiologie (German Association for Hygiene and Microbiology). The tests were carried out in test tubes which were filled with Standard-I-Broth (Merck) or with beer wort (8° Be) and diluted 1:5 with tap water. After the addition of the active substances, the volume of the nutrient solution in the test tubes was adjusted to 10 ml. Next, the test tubes were inoculated with 0.1 ml test organism suspension. In the case of bacteria, the inoculated test tubes were incubated in the incubator for 3 days at 37° C. and in the case of fungi, they incubated for 6 days at 30° C. Subsequently, the concentration of the compound added to the nutrient medium which was just able to inhibit completely the growth of the germs was determined. The value thus determined was designated as the minimum inhibitory concentration (m.i.c.). The following concentration intervals were used for the tests: 1,000 ppm, 750 ppm, 500 ppm, 250 ppm, 100 ppm, 50 ppm, 25 ppm, 10 ppm, 7.5 ppm, 5 ppm, 2.5 ppm, and 1 ppm.
(§4) The inhibitory concentrations of the individual products for the above-quoted germs which were determined in this dilution test are listed in the following Table III.

In a further test the test system is Aspergillus niger. The test is described as follows: Minimum inhibitory concentration, dilution test, germ 5. Particulars: 144 h, 9 × 10^5 organisms/ml, 6 days at 30° C. Here is the method:
as §1
5) Aspergillus niger 9 × 10^5 organisms/ml
as §3, §4

Test [2] concerns Mixture of contaminated water from 3 scrubbers of air conditioning installations. Kind of test: Minimum inhibitory concentration, dilution test, germ 7. Here is the method: as §1
7) Mixture of contaminated water
from 3 scrubbers of air con-
ditioning installations
as §3, §4

The subject of test [3] is Staphylococcus aureus. Kind of test: Microbicidal effect, suspension test, germ 1. Particulars: 18° C. to 21° C. Here is the method: (§5) The microbicidal effect of some products named above was determined by means of the suspension test. The methodology of this testing procedure has been taken from the standards for the testing of chemical disinfectants, published in 1959 by the German Association for Hygiene and Microbiology. In conformity with these standards, 0.1 ml of a test organism suspension of the following enumerated bacteria or fungi was pipetted into test tubes at 18° C. to 21° C.
as §2
(§6) The products of the invention to be tested were dissolved in tap water of 16° dH (German degrees of hardness). Then, 10 ml of the respective dilution quantity of the product to be tested were added to each test tube. The concentrations of the products according to the invention were 100 ppm, 250 ppm and 500 ppm in each case. After a duration of action amounting to 1, 2.5, 5, 10, 20, 30 and 60 minutes, a loop of material was taken from each test tube and inoculated in 10 ml of nutrient solution which contained 3% Tween and 0.3% Lecithin as de-inhibitors. The nutrient solutions inoculated with bacteria were incubated at 37° C. whereas the nutrient solutions inoculated with fungi were incubated at 30° C. After 6 days, the growth of the cultures was macroscopically evaluated.

Test [4] has as its system Pseudomonas aeruginosa. Kind of test: Microbicidal effect, suspension test, germ 3. Conditions: 18° C. to 21° C. Here is the method:
as §5
(§7) 3) Pseudomonas aeruginosa
as §6

The next test relates to Candida albicans. Kind of test: Minimum inhibitory concentration, dilution test, germ 4. Particulars: 144 h, 2 × 10^6 organisms/ml, 6 days at 30° C. Here is the method:
as §1
4) Candida albicans 2 × 10^6 organisms/ml
as §3, §4

Test [5] deals with Escherichia coli. The test is described as follows: Minimum inhibitory concentration, dilution test, germ 2. Conditions: 72 h, 4 × 10^7 organisms/ml, 3 days at 37° C. Here is the method:
as §1
(§8) 2) Escherichia coli 4 × 10^7 organisms/ml
as §3, §4

Test [6] concerns Pseudomonas aeruginosa. Kind of test: Minimum inhibitory concentration, dilution test, germ 3. Conditions: 72 h, 4 × 10^7 organism/ml, 3 days at 37° C. Here is the method:
as §1, §7, §3, §4

Test [7] concerns Mixture of contaminated water from 3 cooling towers. Kind of test: Minimum inhibitory concentration, dilution test, germ 6. Here is the method:
as §1
6) Mixture of contaminated water
as §3, §4

Test [8] concerns Escherichia coli. Kind of test: Microbicidal effect, suspension test, germ 2. Conditions: 18° C. to 21° C. Here is the method:
as §5, §8, §6

For test [9], the system named is mixed suspension of Scenedesmus obliquus and Chlorella vulgaris. Kind of test: Efficacy in inhibiting growth of algae. Conditions: 168 h; after 7 days, pH 7.2; read-out: Minimum Inhibitory Concentration, growth of algae. Here is the method:
The efficacy in inhibiting growth of algae was determined in cylindrical vessels under intensive aeration. Into the vessels, there were introduced 100 ml of a nutrient solution to which increasing quantities of active substances had been added as well as 4 ml of a mixed suspension of Scenedesmus obliquus and Chlorella vulgaris.
The nutrition solution has the following composition:
These compounds were dissolved in 1000 ml of distilled water. The pH value of the nutrient solution was 7.2. The tests were carried out with the following concentration intervals of the active substance: 10 ppm, 5 ppm, 2.5 ppm, 2 ppm, 1.5 ppm, 1 ppm, 0.75 ppm, 0.5 ppm, and 0.25 ppm.

The subject of test [10] is Desulfovibrio desulfuricans. The test is described as follows: Inhibition of the growth of sulfate-reducing bacteria. Particulars: 672 h, 6× 10^5 organisms/ml, 37° C., 4 weeks, pH 7.4, read-out: Inhibitory Concentration, growth of Desulfovibrio Desulfuricans. Here is the method: The minimum inhibitory concentrations were determined in 50 ml screw-top bottles. The bottles were charged with an optimum nutrient solution for the growth of sulfate-reducing bacteria of the following composition:
which compounds were dissolved in 1000 ml of distilled water. The pH value of the nutrient solution was 7.4.
After various concentrations of the products to be tested had been added, 1 ml of a pure culture of Desulfovibrio desulfuricans 6× 10^5 organisms/ml was used for inoculation, followed by incubation at 37° C. for 4 weeks. The following concentration intervals were used for the tests: 100 ppm, 50 ppm, 40 ppm, 30 ppm, 20 ppm, 10 ppm, 5 ppm, 2.5 ppm, and 1 ppm.
In this test, the minimum inhibitory concentrations listed in the following Table VI were determined for the individual products.

Take `CCCCCCCCCCCCNC(=O)CN.Cl` [Product A, N-glycyl-dodecylamine hydrochloride]: the MIC against Staphylococcus aureus [1] was found to be 50 µg/mL; with Aspergillus niger it was 100 µg/mL; in test [2], 25 µg/mL; against Candida albicans, 50 µg/mL; against Escherichia coli [5], 100 µg/mL; against Pseudomonas aeruginosa [6], 500 µg/mL. In addition, the MIC in test [7] came to 25 µg/mL. Moreover, the “Sterilization Time” value with Staphylococcus aureus [3] (100 ppm in tap water) was found to be 10 min; in the test with Staphylococcus aureus [3] (250 ppm in tap water), 5 min; with Staphylococcus aureus [3] (500 ppm in tap water), 5 min; with Pseudomonas aeruginosa [4] (100 ppm in tap water) it was 60 min; in the test with Pseudomonas aeruginosa [4] (250 ppm in tap water) it was 20 min; in the test on Pseudomonas aeruginosa [4] (500 ppm in tap water), 10 min. Further, the “Sterilization Time” value was determined as 20 min with Escherichia coli [8] (100 ppm in tap water), 10 min in the test with Escherichia coli [8] (250 ppm in tap water) and 10 min with Escherichia coli [8] (500 ppm in tap water).

`CCCCCCCCCCNC(=O)CCN` [Product B, 3-aminopropionic acid-decylamide]: the MIC in the test on Staphylococcus aureus [1] was 50 µg/mL (≈ 219 µM); against Aspergillus niger it was 100 µg/mL (≈ 438 µM); in test [2], 25 µg/mL (≈ 109 µM); against Candida albicans, 100 µg/mL (≈ 438 µM); in the test with Escherichia coli [5], 50 µg/mL (≈ 219 µM); in test [9] it was 1 µg/mL (≈ 4.38 µM). Also, the results for the MIC (against Pseudomonas aeruginosa [6]; in test [10]; in [7]) were 100 µg/mL (≈ 438 µM), 5 µg/mL (≈ 21.9 µM) and 25 µg/mL (≈ 109 µM), respectively. In addition, the “Sterilization Time” value in the test on Staphylococcus aureus [3] (100 ppm in tap water) came to 5 min; in the test with Staphylococcus aureus [3] (250 ppm in tap water), 5 min; in the test with Staphylococcus aureus [3] (500 ppm in tap water), 5 min; in the test with Pseudomonas aeruginosa [4] (100 ppm in tap water), 30 min; in the test on Pseudomonas aeruginosa [4] (250 ppm in tap water), 10 min; in the test on Pseudomonas aeruginosa [4] (500 ppm in tap water), 10 min. In addition, the “Sterilization Time” value with Escherichia coli [8] (100 ppm in tap water), in the test with Escherichia coli [8] (250 ppm in tap water) and with Escherichia coli [8] (500 ppm in tap water) was 10 min in each case.

With `CCCCCCCCCCCCNC(=O)CCCCCN(C)C` [Product C, 6-(N,N-dimethylamino)capronic acid-dodecylamide], the MIC against Staphylococcus aureus [1] came to 25 µg/mL (≈ 76.6 µM); against Aspergillus niger, 250 µg/mL (≈ 766 µM); in [2] it was 10 µg/mL (≈ 30.6 µM); in the test with Candida albicans, 100 µg/mL (≈ 306 µM); against Escherichia coli [5], 25 µg/mL (≈ 76.6 µM); in [9], 0.75 µg/mL (≈ 2.3 µM). Also, the MIC in the test with Pseudomonas aeruginosa [6] stood at 1000 µg/mL (≈ 3060 µM); in [10], 2.5 µg/mL (≈ 7.66 µM); in [7], 10 µg/mL (≈ 30.6 µM). Moreover, the “Sterilization Time” value in the test with Staphylococcus aureus [3] (100 ppm in tap water) was 5 min; in the test on Staphylococcus aureus [3] (250 ppm in tap water), 2.5 min; in the test with Staphylococcus aureus [3] (500 ppm in tap water), 2.5 min; in the test with Pseudomonas aeruginosa [4] (100 ppm in tap water), 30 min; in the test on Pseudomonas aeruginosa [4] (250 ppm in tap water), 10 min; in the test with Pseudomonas aeruginosa [4] (500 ppm in tap water) it was 5 min. In addition, the “Sterilization Time” value amounted to 10 min with Escherichia coli [8] (100 ppm in tap water), 5 min with Escherichia coli [8] (250 ppm in tap water) and 5 min with Escherichia coli [8] (500 ppm in tap water).

Turning to `CCCCCCCCCCCCNC(=O)CCCCCN` [Product D, 6-aminocapronic acid-dodecylamide], the MIC against Staphylococcus aureus [1] was 5 µg/mL (≈ 16.7 µM); against Aspergillus niger, 50 µg/mL (≈ 167 µM); in [2], 5 µg/mL (≈ 16.7 µM); in the test on Candida albicans, 50 µg/mL (≈ 167 µM); in the test on Escherichia coli [5], 5 µg/mL (≈ 16.7 µM); against Pseudomonas aeruginosa [6], 100 µg/mL (≈ 335 µM). Further, in [7], the MIC came out at 5 µg/mL (≈ 16.7 µM).

In the case of `CCCCCCCCCCCCNC(=O)CCCCCNC(=O)CCCCCN` [Product E], the MIC was 50 µg/mL (≈ 121 µM) against Staphylococcus aureus [1]; 250 µg/mL (≈ 607 µM) with Aspergillus niger; 25 µg/mL (≈ 60.7 µM) in [2]; 250 µg/mL (≈ 607 µM) in the test on Candida albicans; 50 µg/mL (≈ 121 µM) against Escherichia coli [5]; 250 µg/mL (≈ 607 µM) in the test on Pseudomonas aeruginosa [6]. Besides, the MIC in test [7] was 25 µg/mL (≈ 60.7 µM).

As to `CCCCCCCCCCCCCCNC(=O)CCCCCN` [Product F], the MIC was determined as 5 µg/mL (≈ 15.3 µM) against Staphylococcus aureus [1]; 100 µg/mL (≈ 306 µM) against Aspergillus niger; 7.5 µg/mL (≈ 23 µM) in test [2]; 50 µg/mL (≈ 153 µM) in the test on Candida albicans; 5 µg/mL (≈ 15.3 µM) in the test with Escherichia coli [5]; 250 µg/mL (≈ 766 µM) against Pseudomonas aeruginosa [6]. The MIC in [7] is 7.5 µg/mL (≈ 23 µM).
